Assay results: PubChem BioAssay AID248 (DTP/NCI, 2004)
Where “and” joins values, the source holds several entries; their conditions need not be identical. Equal entries are not always repeated. Inconclusive results and toxic doses are left out. No stated cut-off is given here; in the data, active means T/C of 150% or more; inactive means T/C below 125%.

Test system: L1210 leukemia ip in BDF1 mice, survival T/C
Test: NCI In Vivo Anticancer Drug Screen. Data for tumor model L1210 Leukemia (intraperitoneal) in B6D2F1 (BDF1) mice
Conditions: endpoint: mean survival time, higher = longer survival
Outline: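 Tumor was transplanted into mice, which were then dosed with test compound or vehicle alone. Survival was recorded for each group, and the treated figure was expressed relative to the control figure.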

[1] = dose: 100.0 mg/kg/injection, schedule: Q01DX001 (ip), vehicle: carboxymethylcellulose (CMC)
[2] = dose: 200.0 mg/kg/injection, schedule: Q01DX001 (ip), vehicle: carboxymethylcellulose (CMC)
[3] = dose: 400.0 mg/kg/injection, schedule: Q01DX001 (ip), vehicle: carboxymethylcellulose (CMC)
[4] = dose: 100.0 mg/kg/injection, schedule: Q01DX009 (ip), vehicle: saline with Tween-80
[5] = dose: 100.0 mg/kg/injection, schedule: Q04DX003 (ip), vehicle: saline with Tween-80
[6] = dose: 200.0 mg/kg/injection, schedule: Q01DX009 (ip), vehicle: saline with Tween-80
[7] = dose: 200.0 mg/kg/injection, schedule: Q04DX003 (ip), vehicle: saline with Tween-80
[8] = dose: 400.0 mg/kg/injection, schedule: Q01DX009 (ip), vehicle: saline with Tween-80
[9] = dose: 400.0 mg/kg/injection, schedule: Q04DX003 (ip), vehicle: saline with Tween-80
[10] = dose: 100.0 mg/kg/injection, schedule: Q04DX002 (ip), vehicle: saline with Tween-80
[11] = dose: 200.0 mg/kg/injection, schedule: Q04DX002 (ip), vehicle: saline with Tween-80
[12] = dose: 400.0 mg/kg/injection, schedule: Q04DX002 (ip), vehicle: saline with Tween-80
[13] = dose: 100.0 mg/kg/injection, schedule: Q01DX001 (ip), vehicle: saline
[14] = dose: 200.0 mg/kg/injection, schedule: Q01DX001 (ip), vehicle: saline
[15] = dose: 100.0 mg/kg/injection, schedule: Q01DX009 (ip), vehicle: Klucel (hydroxypropylcellulose) (HPC)
[16] = dose: 200.0 mg/kg/injection, schedule: Q01DX009 (ip), vehicle: Klucel (hydroxypropylcellulose) (HPC)
[17] = dose: 400.0 mg/kg/injection, schedule: Q01DX009 (ip), vehicle: Klucel (hydroxypropylcellulose) (HPC)
[18] = dose: 100.0 mg/kg/injection, schedule: Q04DX003 (ip), vehicle: Klucel (hydroxypropylcellulose) (HPC)
[19] = dose: 200.0 mg/kg/injection, schedule: Q04DX003 (ip), vehicle: Klucel (hydroxypropylcellulose) (HPC)
[20] = dose: 400.0 mg/kg/injection, schedule: Q04DX003 (ip), vehicle: Klucel (hydroxypropylcellulose) (HPC)
[21] = dose: 25.0 mg/kg/injection, schedule: Q04DX003 (ip), vehicle: saline with Tween-80
[22] = dose: 50.0 mg/kg/injection, schedule: Q04DX003 (ip), vehicle: saline with Tween-80

Measured: T/C

O=C1OC(=O)C23CC=CCC12CC=CC3 (stereo not drawn)
inactive: dose: 50.0 mg/kg/injection, schedule: Q01DX001 (ip), vehicle: carboxymethylcellulose (CMC) 104 % of control | [1] 113 % of control | [2] 102 % of control | [3] 104 % of control

O=C(CCC(O)c1ccccc1)c1ccccc1 (stereo not drawn)
inactive: [4] 94 % of control | [5] 110 % of control | [6] 94 % of control | [7] 106 % of control | [8] 97 % of control | [9] 97 % of control

Nc1ccccc1SC(CC(=O)c1ccc(-c2ccccc2)cc1)c1ccco1 (stereo not drawn)
inactive: [4] 94 % of control | [10] 105 % of control | [6] 91 % of control | [11] 102 % of control | [8] 91 % of control | [12] 91 % of control

Clc1ccc(C#Cc2ccc(Cl)cc2)cc1
inactive: dose: 6.25 mg/kg/injection, schedule: Q01DX009 (ip), vehicle: saline with Tween-80 103 % of control | dose: 12.5 mg/kg/injection, schedule: Q01DX009 (ip), vehicle: saline with Tween-80 103 % of control

CCCCCCCCOC(=O)Nc1ccc(S(=O)(=O)N(C)C)cc1
inactive: [1] 98 % of control | [2] 97 % of control | [3] 89 % of control

O=C(N/N=C\c1ccc(N(CCCl)CCCl)cc1)c1cccnc1
inactive: dose: 12.5 mg/kg/injection, schedule: Q01DX Z (ip), vehicle: carboxymethylcellulose (CMC) 96 % of control | dose: 25.0 mg/kg/injection, schedule: Q01DX Z (ip), vehicle: carboxymethylcellulose (CMC) 93 % of control and 94 % of control | dose: 50.0 mg/kg/injection, schedule: Q01DX Z (ip), vehicle: carboxymethylcellulose (CMC) 94 % of control and 100 % of control | dose: 100.0 mg/kg/injection, schedule: Q01DX Z (ip), vehicle: carboxymethylcellulose (CMC) 97 % of control and 104 % of control | dose: 200.0 mg/kg/injection, schedule: Q01DX Z (ip), vehicle: carboxymethylcellulose (CMC) 107 % of control and 111 % of control

CC(CO)(CO)N=Cc1ccccc1O.CC(CO)(CO)N=Cc1ccccc1O.[Co]
inactive: dose: 50.0 mg/kg/injection, schedule: Q01DX001 (ip), vehicle: saline 108 % of control | [13] 97 % of control | [14] 106 % of control

[Cl][Sn]([c]1cccc2ccccc12)([c]1cccc2ccccc12)[c]1cccc2ccccc12
inactive: [10] 98 % of control | [11] 102 % of control | [12] 87 % of control

O=C1CCOc2ccc(Cl)cc21
inactive: [15] 95 % of control | [16] 101 % of control | [17] 106 % of control

O=[N+]([O-])c1ccc(OCCNS(=O)(=O)c2cccc(S(=O)(=O)F)c2)c(Cl)c1
inactive: [4] 104 % of control | [5] 97 % of control | [6] 88 % of control | [7] 95 % of control | [8] 90 % of control | [9] 101 % of control

COc1ccc(C(OC(=O)c2ccc([N+](=O)[O-])cc2)c2ccccc2)cc1 (stereo not drawn)
inactive: [1] 88 % of control | [2] 91 % of control | [3] 93 % of control

CCCCCc1c(CCCC)c(=O)[nH]c2ccccc12
inactive: [13] 97 % of control | [14] 98 % of control | dose: 400.0 mg/kg/injection, schedule: Q01DX001 (ip), vehicle: saline 90 % of control

O=C(COc1ccc(Cl)cc1Cl)NCc1ccc(Cl)cc1
inactive: [15] 91 % of control | [18] 112 % of control | [16] 96 % of control | [19] 96 % of control | [17] 94 % of control | [20] 95 % of control

Cc1cc(/C=C/C2=[N+](C)c3ccc(F)cc3C2(C)C)c(O)c2ncccc12
inactive: [1] 98 % of control | [2] 90 % of control | [3] 93 % of control

O=C(O)c1ccc2c(c1)C(=O)c1ccccc1-2
inactive: [1] 107 % of control | [2] 100 % of control | [3] 107 % of control

Cc1ccccc1NC(=O)CI
inactive: dose: 12.5 mg/kg/injection, schedule: Q01DX009 (ip), vehicle: Klucel (hydroxypropylcellulose) (HPC) 97 % of control | dose: 25.0 mg/kg/injection, schedule: Q01DX009 (ip), vehicle: Klucel (hydroxypropylcellulose) (HPC) 103 % of control | dose: 50.0 mg/kg/injection, schedule: Q01DX009 (ip), vehicle: Klucel (hydroxypropylcellulose) (HPC) 101 % of control

Brc1cc(Br)cc(Br)c1
inactive: [18] 92 % of control and 98 % of control | [19] 101 % of control and 105 % of control | [20] 98 % of control and 103 % of control

CC(Br)CNC(=O)c1cc([N+](=O)[O-])cc([N+](=O)[O-])c1 (stereo not drawn)
inactive: dose: 75.0 mg/kg/injection, schedule: Q04DX003 (ip), vehicle: Klucel (hydroxypropylcellulose) (HPC) 96 % of control | dose: 150.0 mg/kg/injection, schedule: Q04DX003 (ip), vehicle: Klucel (hydroxypropylcellulose) (HPC) 92 % of control | dose: 300.0 mg/kg/injection, schedule: Q04DX003 (ip), vehicle: Klucel (hydroxypropylcellulose) (HPC) 94 % of control

O=C(Nc1cccc([N+](=O)[O-])c1)Nc1ccccc1Cl
inactive: dose: 100.0 mg/kg/injection, schedule: Q04DX002 (ip), vehicle: saline + alcohol 88 % of control | dose: 200.0 mg/kg/injection, schedule: Q04DX002 (ip), vehicle: saline + alcohol 88 % of control | dose: 400.0 mg/kg/injection, schedule: Q04DX002 (ip), vehicle: saline + alcohol 88 % of control

Cc1ccn(-c2cc(NS(=O)(=O)c3ccccc3)c3ccccc3c2NS(=O)(=O)c2ccccc2)c(=O)c1
inactive: dose: 50.0 mg/kg/injection, schedule: Q01DX001 (ip), vehicle: Klucel (hydroxypropylcellulose) (HPC) 107 % of control | dose: 100.0 mg/kg/injection, schedule: Q01DX001 (ip), vehicle: Klucel (hydroxypropylcellulose) (HPC) 94 % of control | dose: 200.0 mg/kg/injection, schedule: Q01DX001 (ip), vehicle: Klucel (hydroxypropylcellulose) (HPC) 97 % of control

Oc1ccc(-c2n[nH]c3c2CCCc2ccccc2-3)cc1
inactive: dose: 12.5 mg/kg/injection, schedule: Q01DX001 (ip), vehicle: saline with Tween-80 101 % of control | dose: 12.5 mg/kg/injection, schedule: Q04DX003 (ip), vehicle: saline with Tween-80 103 % of control | dose: 25.0 mg/kg/injection, schedule: Q01DX001 (ip), vehicle: saline with Tween-80 104 % of control | [21] 106 % of control | dose: 50.0 mg/kg/injection, schedule: Q01DX001 (ip), vehicle: saline with Tween-80 108 % of control | [22] 92 % of control

COc1ccc(CCCC(C)(C)O)cc1
inactive: dose: 50.0 mg/kg/injection, schedule: Q01DX009 (ip), vehicle: saline with Tween-80 94 % of control | [4] 97 % of control

CN=Cc1ccccc1O.CN=Cc1ccccc1O.[Cu+2]
inactive: dose: 4.68 mg/kg/injection, schedule: Q01DX009 (ip), vehicle: acetone 94 % of control | dose: 9.37 mg/kg/injection, schedule: Q01DX009 (ip), vehicle: acetone 92 % of control | dose: 18.75 mg/kg/injection, schedule: Q01DX009 (ip), vehicle: acetone 90 % of control | dose: 18.75 mg/kg/injection, schedule: Q04DX003 (ip), vehicle: acetone 95 % of control | dose: 37.5 mg/kg/injection, schedule: Q04DX003 (ip), vehicle: acetone 92 % of control | dose: 75.0 mg/kg/injection, schedule: Q01DX001 (ip), vehicle: acetone 92 % of control

CC(C)(C)/[N+]([O-])=[N+](\[O-])C(C)(C)C (tested in a mixture with another compound)
inactive: [4] 98 % of control | [18] 100 % of control | [6] 105 % of control | [19] 96 % of control | [8] 90 % of control

CCOC(=O)CCCN(C(=O)OCc1ccccc1)N(C)C(=O)OCc1ccccc1
inactive: [21] 104 % of control | [22] 111 % of control | [5] 106 % of control | [7] 104 % of control | [9] 101 % of control
